Measured values: patent publication US20250195549A1, “NEW USE” (Kancera AB, priority 2023, published 2025)

Key:
[1] = test system: ST-elevation myocardial infarction (STEMI) patients undergoing percutaneous coronary intervention; experiment: FRACTAL phase IIa clinical study: left ventricular thrombus and intramyocardial haemorrhage by CMR and/or echocardiogram on day 3; type: in vivo, human; conditions: treatment group vs placebo, day 3 of the treatment
Source text: (§1) The FRACTAL (FRACTalkine inhibition in Acute myocardial infarction) study was designed as a phase Iia, randomised, two-arm parallel-group, placebo-controlled, double-blind, multi-centre trial. The trial was primarily intended to assess the safety tolerability of intravenous and oral administration of (2R)-2-[(2-amino-5-{[(1S)-1-phenylethyl]thio}[1,3]thiazolo[4,5-d]pyrimidin-7-yl)amino]-4-methylpentan-1-ol (KAND567) (hydrochloride salt) (′investigational medicinal product (IMP)′; structure below)
in ST-elevation myocardial infarction (STEMI) patients undergoing percutaneous coronary intervention. For this, a cohort of 71 STEMI patients were admitted into two large tertiary centres in the United Kingdom. Secondary endpoints included investigating the anti-inflammatory and cardioprotective effects of the treatment. […]
(§2) The primary outcome of the study was safety, but a number of key secondary outcomes being assessed in parallel. Blood samples at nine different time points were used to assess any changes in the immune compartment as well as in inflammatory markers, and the cardioprotective effects of KAND567, as measured by gadolinium-contrast Cardiac Magnetic Resonance (CMR) (Cardiac MRI), were assessed as an additional secondary end point. […]

[2] = test system: ST-elevation myocardial infarction (STEMI) patients undergoing percutaneous coronary intervention; experiment: FRACTAL clinical study: infarct size by late gadolinium-enhanced (LGE) MRI at day 90; type: in vivo, human; conditions: for Infarct size, GAD5-SD(%): LGE MRI at day 90, average, N in brackets
Procedure: Every patient received a baseline CMR scan on day 3 post myocardial infarction, followed by a subsequent scan after 3 months. Image analysis was performed by a
Additionally, the size of the myocardial infarction was assessed using late gadolinium-enhanced (LGE) magnetic resonance imaging (MRI) at day 90 to compare infarct size in patients administered the placebo or the IMP, using a thresholding of 5 standard deviations above the mean signal intensity from normal myocardium.
The average infarct size for patients with and without intramyocardial haemorrhage in the placebo and treatment groups is shown in the table below.

[3] = test system: ST-elevation myocardial infarction (STEMI) patients undergoing percutaneous coronary intervention; experiment: FRACTAL clinical study: safety, tolerability and bleeding; type: in vivo, human
Source text: as §1
Following angiography and final confirmation of eligibility, patients were randomised to receive the intravenous (IV) bolus of either investigational medicinal product (IMP) or placebo. To avoid delivery of the IMP after reperfusion of the occluded vessel, percutaneous coronary intervention (PCI) was only commenced following the intravenous bolus of IMP/placebo. Patients then completed the remainder of their IMP infusion over 6 h. […]
as §2

[4] = FRACTAL clinical study: steady state concentration during IV infusion; type: in vivo, human; conditions: IV infusion over 6 hours, total dose 134 mg; in the blood
Procedure: The IMP and placebo (IMP 7.5 mg/mL solution (comprising 7.5 mg/mL IMP, Kleptose HP, sodium chloride and disodium phosphate in water for injection) added to 250 mL sodium chloride 0.9%, placebo solution as IMP solution but without active ingredient) were administered intravenously over a 6 hour period, at the rate summarised in the table below.
• Infusion of the initial bolus dose (approximately 10 mg of the active ingredient) was commenced at least 2 minutes before initiation of PCI. • Reperfusion of the occluded vessel was then initiated by advancing a coronary wire past the occluded or partially occluded site, followed by either balloon angioplasty, thrombectomy or stenting, according to routine clinical care. • IV infusion was then continued over 6 hours with an estimated steady state concentration of 1.5 µM (the rate of infusion was adjusted 3 hours after the start of the bolus dose, to achieve a steady concentration in the blood). The same IV solution was used throughout to give a total dose of 134 mg of the active ingredient over the 6-hour infusion time; placebo solution as IMP solution but without active ingredient). • If required, a bridging peroral dose of 0 to 4 capsules (50 mg capsules of IMP (white, size 1, hard capsules) or matching placebo) was administered depending on timing of presenting at the hospital. […]

[5] = test system: rat myocardial infarction model; conditions: rat model without antiplatelet or anticoagulant co-treatment; cited from earlier work

SMILES: CC(C)C[C@H](CO)Nc1nc(S[C@@H](C)c2ccccc2)nc2nc(N)sc12 [KAND567, (2R)-2-[(2-amino-5-{[(1S)-1-phenylethyl]thio}[1,3]thiazolo[4,5-d]pyrimidin-7-yl)amino]-4-methylpentan-1-ol]
- intramyocardial haemorrhage (in words) [1]: significant reduction
- left ventricular thrombus (in words) [1]: significant reduction
- infarct size compared to the placebo group (in words) ([2]; day 90, beyond the benefit of avoiding intramyocardial hemorrhage): further reduction
- Infarct size, GAD5-SD(%) ([2]; patients with intramyocardial hemorrhage, T-test vs placebo p = 0.81): 30.8 (11) %
- Infarct size, GAD5-SD(%) ([2]; patients without intramyocardial hemorrhage, T-test vs placebo p = 0.15): 17.8 (16) %
- safety and tolerability ([3]; intravenous and oral administration in STEMI patients): safe and well-tolerated
- incidence of bleeding ([3]; treatment group vs placebo): no increased incidence of bleeding
- estimated steady state concentration [4]: 1.5 UM
- infarct size [5]: reduce
- inflammation [5]: reduce
- intramyocardial haemorrhage [5]: reduce
